Tested on: 653999-131-R-J2-PDC complex spheroids, growth % test/control
Assay: Anticancer human tumor 653999-131-R-J2-PDC patient-derived lung adenocarcinoma cell line growth inhibition [AhR]
Conditions: for IC50: curve of first compound; for viability, T/C: stronger effect = lower value; active = viability on the fitted dose curve at most 10% of control; inactive = the rest
Summary of the method: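 Agents were dosed in half-log steps down from roughly clinical Cmax, or from 10 microM where Cmax was unknown, alone and with AhR antagonists. Read-out: percent test/control growth of tumor spheroids containing HUVEC and MSC stromal cells.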

[1] = second compound 0.1 µM, first compound 0.00316 µM
[2] = second compound 0.1 µM, first compound 0.01 µM
[3] = second compound 0.1 µM, first compound 0.0316 µM
[4] = second compound 0.1 µM, first compound 0.1 µM
[5] = second compound 0.316 µM, first compound 0.00316 µM
[6] = second compound 0.316 µM, first compound 0.01 µM
[7] = second compound 0.316 µM, first compound 0.0316 µM
[8] = second compound 0.316 µM, first compound 0.1 µM
[9] = second compound 1 µM, first compound 0.00316 µM
[10] = second compound 1 µM, first compound 0.01 µM
[11] = second compound 1 µM, first compound 0.0316 µM
[12] = second compound 1 µM, first compound 0.1 µM
[13] = second compound 3.16 µM, first compound 0.00316 µM
[14] = second compound 3.16 µM, first compound 0.01 µM
[15] = second compound 3.16 µM, first compound 0.0316 µM
[16] = second compound 3.16 µM, first compound 0.1 µM
[17] = second compound 10 µM, first compound 0.00316 µM
[18] = second compound 10 µM, first compound 0.01 µM
[19] = second compound 10 µM, first compound 0.0316 µM
[20] = second compound 10 µM, first compound 0.1 µM
[21] = second compound 0.1 µM, first compound 0.316 µM
[22] = second compound 0.1 µM, first compound 1 µM
[23] = second compound 0.316 µM, first compound 0.316 µM
[24] = second compound 0.316 µM, first compound 1 µM
[25] = second compound 1 µM, first compound 0.316 µM
[26] = second compound 1 µM, first compound 1 µM
[27] = second compound 3.16 µM, first compound 0.316 µM
[28] = second compound 3.16 µM, first compound 1 µM
[29] = second compound 10 µM, first compound 0.316 µM
[30] = second compound 10 µM, first compound 1 µM
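Also: spheroids exposed to agents for seven days.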
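For viability, T/C in this document: 100% = DMSO vehicle control viability.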

Cn1ncnc1C1c2n[nH]c(=O)c3cc(F)cc(c23)NC1c1ccc(F)cc1 (stereo not given) + CC(CO)NC(=O)c1cc(-c2ccc(Cl)cc2)nn(-c2cnn(C)c2)c1=O
inactive: viability, T/C (second compound 0.1 µM, first compound 0.000316 µM) 104% | viability, T/C (second compound 0.1 µM, first compound 0.001 µM) 99.5% | viability, T/C [1] 109% | viability, T/C [2] 101% | viability, T/C [3] 102% | viability, T/C [4] 91.9% | viability, T/C (second compound 0.316 µM, first compound 0.000316 µM) 111% | viability, T/C (second compound 0.316 µM, first compound 0.001 µM) 98.8% | viability, T/C [5] 97.1% | viability, T/C [6] 96.3% | viability, T/C [7] 87.2% | viability, T/C [8] 102% | viability, T/C (second compound 1 µM, first compound 0.000316 µM) 105% | viability, T/C (second compound 1 µM, first compound 0.001 µM) 103% | viability, T/C [9] 102% | viability, T/C [10] 106% | viability, T/C [11] 95.5% | viability, T/C [12] 96% | viability, T/C (second compound 3.16 µM, first compound 0.000316 µM) 99.2% | viability, T/C (second compound 3.16 µM, first compound 0.001 µM) 107% | viability, T/C [13] 114% | viability, T/C [14] 102% | viability, T/C [15] 97.2% | viability, T/C [16] 100% | viability, T/C (second compound 10 µM, first compound 0.000316 µM) 106% | viability, T/C (second compound 10 µM, first compound 0.001 µM) 105% | viability, T/C [17] 103% | viability, T/C [18] 97.1% | viability, T/C [19] 94.8% | viability, T/C [20] 93.2%
> 100 nM: IC50 (second compound 0.1 µM) | IC50 (second compound 0.316 µM) | IC50 (second compound 1 µM) | IC50 (second compound 3.16 µM) | IC50 (second compound 10 µM)

CC1(C)CCC(CN2CCN(c3ccc(C(=O)NS(=O)(=O)c4ccc(NCC5CCOCC5)c([N+](=O)[O-])c4)c(Oc4cnc5[nH]ccc5c4)c3)CC2)=C(c2ccc(Cl)cc2)C1 + Cc1cncc(-c2nc(NCCc3c[nH]c4ccccc34)c3ncn(C(C)C)c3n2)c1
> 10000 nM: IC50 (second compound 0.1 µM) | IC50 (second compound 0.316 µM) | IC50 (second compound 1 µM) | IC50 (second compound 3.16 µM) | IC50 (second compound 10 µM)
inactive: viability, T/C [3] 92.8% | viability, T/C [4] 93.8% | viability, T/C [21] 89% | viability, T/C [22] 101% | viability, T/C (second compound 0.1 µM, first compound 3.16 µM) 94.2% | viability, T/C (second compound 0.1 µM, first compound 10 µM) 85.8% | viability, T/C [7] 97.8% | viability, T/C [8] 90.7% | viability, T/C [23] 94.8% | viability, T/C [24] 97.8% | viability, T/C (second compound 0.316 µM, first compound 3.16 µM) 116% | viability, T/C (second compound 0.316 µM, first compound 10 µM) 83% | viability, T/C [11] 103% | viability, T/C [12] 108% | viability, T/C [25] 109% | viability, T/C [26] 102% | viability, T/C (second compound 1 µM, first compound 3.16 µM) 116% | viability, T/C (second compound 1 µM, first compound 10 µM) 105% | viability, T/C [15] 105% | viability, T/C [16] 105% | viability, T/C [27] 109% | viability, T/C [28] 115% | viability, T/C (second compound 3.16 µM, first compound 3.16 µM) 104% | viability, T/C (second compound 3.16 µM, first compound 10 µM) 91.8% | viability, T/C [19] 59.4% | viability, T/C [20] 61.9% | viability, T/C [29] 59.5% | viability, T/C [30] 71.3% | viability, T/C (second compound 10 µM, first compound 3.16 µM) 74.1% | viability, T/C (second compound 10 µM, first compound 10 µM) 62.5%

Nc1ncn(C2CC(O)C(CO)S2)c(=O)n1 (stereo not given) + Cc1ccccc1N=Nc1ccc(NC(=O)c2ccnn2C)c(C)c1
inactive: viability, T/C (second compound 0.1 µM, first compound 0.000949 µM) 96.4% | viability, T/C (second compound 0.1 µM, first compound 0.003 µM) 98.8% | viability, T/C (second compound 0.1 µM, first compound 0.00949 µM) 98.2% | viability, T/C (second compound 0.1 µM, first compound 0.03 µM) 101% | viability, T/C (second compound 0.1 µM, first compound 0.0949 µM) 95.3% | viability, T/C (second compound 0.1 µM, first compound 0.3 µM) 85.8% | viability, T/C (second compound 0.316 µM, first compound 0.000949 µM) 98.6% | viability, T/C (second compound 0.316 µM, first compound 0.003 µM) 105% | viability, T/C (second compound 0.316 µM, first compound 0.00949 µM) 105% | viability, T/C (second compound 0.316 µM, first compound 0.03 µM) 105% | viability, T/C (second compound 0.316 µM, first compound 0.0949 µM) 92.8% | viability, T/C (second compound 0.316 µM, first compound 0.3 µM) 95.4% | viability, T/C (second compound 1 µM, first compound 0.000949 µM) 107% | viability, T/C (second compound 1 µM, first compound 0.003 µM) 102% | viability, T/C (second compound 1 µM, first compound 0.00949 µM) 109% | viability, T/C (second compound 1 µM, first compound 0.03 µM) 109% | viability, T/C (second compound 1 µM, first compound 0.0949 µM) 88.2% | viability, T/C (second compound 1 µM, first compound 0.3 µM) 88.7% | viability, T/C (second compound 3.16 µM, first compound 0.000949 µM) 102% | viability, T/C (second compound 3.16 µM, first compound 0.003 µM) 100% | viability, T/C (second compound 3.16 µM, first compound 0.00949 µM) 95.1% | viability, T/C (second compound 3.16 µM, first compound 0.03 µM) 94.4% | viability, T/C (second compound 3.16 µM, first compound 0.0949 µM) 95.8% | viability, T/C (second compound 3.16 µM, first compound 0.3 µM) 82% | viability, T/C (second compound 10 µM, first compound 0.000949 µM) 101% | viability, T/C (second compound 10 µM, first compound 0.003 µM) 103% | viability, T/C (second compound 10 µM, first compound 0.00949 µM) 110% | viability, T/C (second compound 10 µM, first compound 0.03 µM) 95.6% | viability, T/C (second compound 10 µM, first compound 0.0949 µM) 107% | viability, T/C (second compound 10 µM, first compound 0.3 µM) 103%
> 300 nM: IC50 (second compound 0.1 µM) | IC50 (second compound 0.316 µM) | IC50 (second compound 1 µM) | IC50 (second compound 3.16 µM) | IC50 (second compound 10 µM)

Nc1ncn(C2CC(O)C(CO)O2)c(=O)n1 (stereo not given) + Cc1ccccc1N=Nc1ccc(NC(=O)c2ccnn2C)c(C)c1
> 1000 nM: IC50 (second compound 0.1 µM) | IC50 (second compound 0.316 µM) | IC50 (second compound 1 µM) | IC50 (second compound 3.16 µM) | IC50 (second compound 10 µM)
inactive: viability, T/C [1] 97.5% | viability, T/C [2] 99.3% | viability, T/C [3] 95.5% | viability, T/C [4] 87.5% | viability, T/C [21] 79.9% | viability, T/C [22] 76.9% | viability, T/C [5] 100% | viability, T/C [6] 93.8% | viability, T/C [7] 80.8% | viability, T/C [8] 83.2% | viability, T/C [23] 81.1% | viability, T/C [24] 71.7% | viability, T/C [9] 87.5% | viability, T/C [10] 94.6% | viability, T/C [11] 88% | viability, T/C [12] 93.3% | viability, T/C [25] 78.9% | viability, T/C [26] 78.1% | viability, T/C [13] 88.6% | viability, T/C [14] 92.9% | viability, T/C [15] 88% | viability, T/C [16] 77.8% | viability, T/C [27] 84.7% | viability, T/C [28] 72.7% | viability, T/C [17] 84.3% | viability, T/C [18] 78.7% | viability, T/C [19] 82.7% | viability, T/C [20] 78.6% | viability, T/C [29] 77.5% | viability, T/C [30] 70.8%

Reference: PubChem BioAssay AID1919000 (Molecular Pharmacology Branch, DTP, NCI, 2023)
